According to paper PMC6349357, “Computational and experimental analysis of bioactive peptide linear motifs in the integrin adhesome” (PLoS ONE, 2019):
Entries after “also recorded” stand apart in the source; their conditions may differ.

Experiments:
[1] = target: T1, vinculin (Homo sapiens, UniProt P18206); experiment: Surface plasmon resonance, peptides injected over immobilised vinculin; assay type: binding; details: SPR, CM5 chip, serial peptide injections at 1 mM; rank order
T1 sequence (P18206 1-1066 isoform P18206-2): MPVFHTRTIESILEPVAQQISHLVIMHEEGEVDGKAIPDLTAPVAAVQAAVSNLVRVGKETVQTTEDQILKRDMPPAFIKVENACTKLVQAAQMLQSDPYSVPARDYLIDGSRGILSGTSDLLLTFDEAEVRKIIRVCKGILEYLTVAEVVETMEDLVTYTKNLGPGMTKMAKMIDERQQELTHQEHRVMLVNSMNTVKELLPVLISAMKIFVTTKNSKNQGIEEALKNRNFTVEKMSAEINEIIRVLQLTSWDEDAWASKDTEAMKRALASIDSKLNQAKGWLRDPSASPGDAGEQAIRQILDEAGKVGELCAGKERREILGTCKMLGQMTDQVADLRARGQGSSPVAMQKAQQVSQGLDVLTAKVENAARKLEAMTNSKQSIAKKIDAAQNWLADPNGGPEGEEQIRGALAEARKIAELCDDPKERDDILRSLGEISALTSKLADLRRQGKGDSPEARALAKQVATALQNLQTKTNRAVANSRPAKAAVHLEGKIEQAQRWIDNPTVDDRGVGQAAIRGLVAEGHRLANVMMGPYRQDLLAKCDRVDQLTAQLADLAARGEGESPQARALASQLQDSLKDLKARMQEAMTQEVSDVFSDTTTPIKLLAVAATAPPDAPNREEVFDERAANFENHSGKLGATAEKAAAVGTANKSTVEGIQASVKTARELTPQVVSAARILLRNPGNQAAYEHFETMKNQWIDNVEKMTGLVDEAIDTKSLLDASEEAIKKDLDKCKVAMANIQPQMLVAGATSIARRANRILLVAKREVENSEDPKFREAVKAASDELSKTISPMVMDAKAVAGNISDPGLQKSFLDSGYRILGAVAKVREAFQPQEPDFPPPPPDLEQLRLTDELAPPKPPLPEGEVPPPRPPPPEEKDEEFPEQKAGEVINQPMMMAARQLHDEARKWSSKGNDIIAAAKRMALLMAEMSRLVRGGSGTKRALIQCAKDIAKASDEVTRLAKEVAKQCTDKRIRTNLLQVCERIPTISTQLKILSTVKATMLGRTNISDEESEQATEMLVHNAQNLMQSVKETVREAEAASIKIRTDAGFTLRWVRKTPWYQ
Experimental: The SPR experiments were performed using a Biacore T200 system (GE Healthcare), and Series S CM5 or SA chips with 4 flow cells each.
Lyophilized vinculin was dissolved in flow buffer to a concentration of 1 mg/ml and covalently coupled onto the carboxymethylated dextran matrix of CM5 sensor chips using standard amine coupling. The flow buffer contained 10 mM HEPES, 150 mM NaCl, 3 mM EDTA, 0.05% surfactant P20. The chip was activated with an injection of 70 μl of a mixture of 0.05 M EDC and 0.2 M NHS, followed by the injection of approximately 70 μl of 10 μg/ml vinculin in 10 mM sodium acetate, pH 5.0 in one flow cell to yield a response of 7200 RU. Remaining reactive groups in the channel were blocked with an injection of 100 μl ethanolamine. Binding experiments were performed by injecting peptides for 120 s at a flow rate of 20 μl/min, at a concentration of 1 mM in the flow buffer over the chip surface to monitor association kinetics, followed by buffer flow for 120 s to measure dissociation kinetics. Between experiments, the surface was regenerated by injecting a 60 second pulse of 10 mM glycine pH 2.

[2] = system: tyrosine phosphorylation in platelets; experiment: Phosphotyrosine western blot (4G10) of platelets treated with peptide; assay type: cell-based, human (healthy volunteers); design: key to Phospho: R: in resting platelets; A: after TRAP activation; details: phosphorylation changes associated with peptide treatment; pal 20 μM, tat 50 μM, TRAP 4 μM
Experimental: A platelet concentration of 3x10^5 /μl was used when performing standard aggregations and a concentration of 1x10^6 /μl was used for sample preparation for western blot analysis. The extent of platelet aggregation was measured by quantifying the optical density of the samples using the Bio-Data PAP-8 aggregometer (platelet aggregation profiler, Horsham, PA, USA). A temperature of 37°C was maintained and samples were stirred using magnets spinning at 1100 rpm. 200 μl of washed platelets was added to each aggregation tube. Different volumes of buffer, peptide and TRAP were added to achieve the desired concentrations. Peptide/buffer was added to each well after two minutes. TRAP, with a final concentration depending on the experiment, was added 6 minutes later and data was collected for an additional 7 minutes.
After the aggregation step, tubes were immediately placed on ice. 27 μl of lysis buffer was then added and the tube was vortexed vigorously. Lysates were left on ice for one hour and vortexed frequently. Proteins were then centrifuged at 14,000 rcf for 10 minutes to remove debris. Samples were then mixed with 2x sample buffer. 50 μl each sample was added to 50 μl of sample buffer. The protein was then denatured by heating to 95°C for 5 minutes. 10 μl of lysate was kept for protein quantification. All samples and lysates were frozen at -80°C.
The Bradford assay was then performed on the lysates to determine protein concentration. Protein concentrations were measured using the Bio-Rad DC Protein Assay. A calibration was created using samples containing a known concentration of bovine serum albumin. These were prepared in advance by sequential dilutions with final concentrations of 1.5mg/ml, 1mg/ml, 0.8mg/ml, 0.6mg/ml, 0.4mg/ml, 0.2mg/ml, 0mg/ml. Samples were then dispensed into a 96 well plate and the Bio-Rad DC reagents were added as described in the protocol. Samples were left to rest for 15 minutes and were then read using 690 0.15 mode on the Wallac plate reader. A standard curve was calculated from the standard samples of known concentration and the y = ax+b equation was used to determine the concentration of the other samples.
Sodium Dodecyl Sulfate Polyacrylamide Gel Electrophoresis (SDS-PAGE) was performed to separate proteins by molecular weight. Polyacrylamide gels were prepared (see Reagents section). Samples or molecular markers were loaded in volumes to give 20 μg of protein. The gels were then run for approximately 80 minutes or until the samples reached the end of the gel. The proteins were then transferred to polyvinylidene difluoride (PVDF) membranes using a Bio-Rad Wet Blot Transfer Cell apparatus. During the transfer the membranes were submerged in 1x transfer buffer (10% 10x transfer buffer, 70% deionised water and 20% methanol). Transfer was performed either overnight at 40 volts at 4°C, or at 100 volts for 1 hour cooled with an ice block. After the transfer the membranes were blocked for 1 hour using 3% bovine albumin serum (BSA) dissolved in TBS-T. Membranes were incubated with 4G10 antibody with a 1:1000 dilution. Unbound primary antibody was washed off with TBS-T three times for 5 minutes each. Membranes were then incubated with anti-mouse IgG secondary antibody (Millipore) with a dilution of 1:30,000. Membranes were submerged in chemiluminescence ECL solution (Thermo Scientific). They were then measured using the western blot developer UVP. One image was taken every 80 seconds for 40 minutes. Numeric data was extracted from selected blots using ImageJ.

tat-WEQLLTTIARTINEVENQI-(NH2) [tat-ACTN1_VBS]
Relative binding affinity to immobilised vinculin [1]: tat-ACTN1_VBS > TLN1_VBS-tat > ACTN1_VBS-tat > ACTN1_VBS; also recorded: bound with relatively higher affinity | Phospho [2]: R
